TGI and GI50 data for 13 molecules are collected here from PubChem BioAssay (NCI).

Among the test systems are HCC-2998 colon; SF-539 CNS; SF-295 CNS; SNB-19 CNS; A498 renal; OVCAR-3 ovarian; 786-0 renal; UO-31 renal; UACC-62 melanoma; PC-3 prostate.
Holding throughout (assay): NCI anticancer screen, dose series, 48 h

Each structure is given as a SMILES string. Several values for one entry are separate records, joined by “and”; a condition that tells them apart may be missing. Identical values can stand only once.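 48-hour exposure; five concentrations; linearly interpolated endpoints. GI50 is the concentration that inhibits growth by half. Definition used: TGI = concentration required for complete inhibition of growth.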

As to `CC(=O)NNc1nc(C)c(C(=O)NNC(=O)C(=O)Nc2c([N+](=O)[O-])ccc(C)c2C)s1`, the TGI in the experiment with HCC-2998 colon, in the experiment with SF-539 CNS, in the experiment on SF-295 CNS, in the experiment with SNB-19 CNS, in the experiment with A498 renal and in the experiment with OVCAR-3 ovarian was > 100 µM throughout. The TGI in the experiment on 786-0 renal, in the experiment with UO-31 renal and with UACC-62 melanoma was > 100 µM in each case.

For `COc1cc([N+](=O)[O-])c(S(=O)(=O)O)cc1-n1nc(C(=O)Nc2ccccc2)n[n+]1-c1cc(S(=O)(=O)[O-])c([N+](=O)[O-])cc1OC`, the TGI with PC-3 prostate, in the experiment on SF-295 CNS, with SNB-19 CNS, in the experiment with OVCAR-3 ovarian, in the experiment on 786-0 renal and in the experiment on UO-31 renal was > 100 µM each time. Further, the TGI in the experiment on UACC-62 melanoma was > 100 µM.

Regarding `COc1ccc(/C=C/C(=O)c2c(-c3ccccc3)nn(C)c(=O)c2N2CCOCC2)cc1`, the TGI in the experiment with SF-539 CNS, in the experiment on SF-295 CNS, in the experiment with SNB-19 CNS, with A498 renal, with 786-0 renal and in the experiment with UO-31 renal was > 100 µM throughout. The TGI with UACC-62 melanoma was > 100 µM.

With `COc1ccc(-c2cc(-c3ccc(Cl)cc3)nc(NCCCCNc3ccnc4cc(Cl)ccc34)n2)cc1`, the GI50 in the experiment with HCC-2998 colon was 1.93 µM; in the experiment on SF-539 CNS, 6.8 µM; in the experiment on SF-295 CNS, 8.02 µM; with SNB-19 CNS, 11 µM; with A498 renal, 4.17 µM; in the experiment on OVCAR-3 ovarian, 1.65 µM. Further, the GI50 was 1.62 µM in the experiment with 786-0 renal, 1.83 µM with UO-31 renal and 17.8 µM in the experiment on UACC-62 melanoma. The TGI in the experiment on HCC-2998 colon amounted to 3.71 µM; in the experiment on SF-539 CNS, 20.9 µM; in the experiment with SF-295 CNS, 24.2 µM; in the experiment on SNB-19 CNS, 25.7 µM; in the experiment on A498 renal, 17.4 µM; in the experiment with OVCAR-3 ovarian, 3.11 µM. In addition, the TGI worked out at 3.02 µM in the experiment with 786-0 renal, 12.7 µM in the experiment on UO-31 renal and 35.8 µM in the experiment on UACC-62 melanoma.

For the molecule `c1ccc2c(c1)Cc1c(Cc3csc4ccccc34)ccc3cccc-2c13`, the TGI in the experiment with HCC-2998 colon, in the experiment on SF-539 CNS, in the experiment with SF-295 CNS, with SNB-19 CNS, in the experiment on OVCAR-3 ovarian and with 786-0 renal was > 100 µM each time. In addition, the TGI with UO-31 renal and in the experiment on UACC-62 melanoma was > 100 µM each time.

In the case of `COc1ccc2c(c1)/C(=C\c1c(-c3cc(OC)ccc3OC)nc3sccn13)C(=O)N2`, the GI50 was 7.97 µM and 2.32 µM in the experiment on PC-3 prostate; 5.31 µM and 18.2 µM in the experiment with SF-295 CNS; 1.72 µM in the experiment on SNB-19 CNS; 6.38 µM and 3.51 µM in the experiment on OVCAR-3 ovarian; 0.561 µM in the experiment with 786-0 renal; 1.57 µM in the experiment on UO-31 renal. In addition, in the experiment with UACC-62 melanoma, the GI50 was 5.42 µM and 12.4 µM. In addition, the TGI with PC-3 prostate is 5.83 µM; in the experiment with SF-295 CNS it was 44.1 µM; in the experiment on SNB-19 CNS, 3.54 µM; in the experiment with OVCAR-3 ovarian it was 14.3 µM; in the experiment with 786-0 renal, 1.78 µM; in the experiment on UO-31 renal, 3.02 µM. Besides, the TGI with UACC-62 melanoma was 28.5 µM.

With `Cc1ccc(/C=C/C(=O)c2sc(-n3nc(-c4ccccc4)cc3-c3ccccc3)nc2C)cc1`, the TGI in the experiment on HCC-2998 colon, in the experiment with SF-539 CNS, in the experiment on SF-295 CNS, with A498 renal, in the experiment on OVCAR-3 ovarian and in the experiment with 786-0 renal was > 100 µM each time. The TGI in the experiment on UO-31 renal and in the experiment with UACC-62 melanoma was > 100 µM in each case.

On to `O=C(CCC(=O)Nc1cccc(C(F)(F)F)c1)CC(=O)c1ccc2ccccc2c1`, for which the TGI with HCC-2998 colon, in the experiment with SF-539 CNS, in the experiment with SF-295 CNS, in the experiment with SNB-19 CNS, with A498 renal and with OVCAR-3 ovarian was > 100 µM in each case. For the same molecule, the TGI with 786-0 renal, in the experiment on UO-31 renal and in the experiment on UACC-62 melanoma was > 100 µM throughout.

For the molecule `COc1cc(/C=C(\NC(=O)c2ccccc2)c2nc3ncncc3[nH]2)cc(OC)c1OC`, the TGI with HCC-2998 colon, in the experiment on SF-539 CNS, in the experiment on SF-295 CNS, with SNB-19 CNS, in the experiment on OVCAR-3 ovarian and in the experiment with 786-0 renal was > 100 µM throughout. For the same molecule, the TGI in the experiment on UO-31 renal and in the experiment with UACC-62 melanoma was > 100 µM each time.

Take `NS(=O)(=O)c1ccc(NC(=O)C2C(=O)C(=O)N(c3ccc(S(N)(=O)=O)cc3)C2=O)cc1` (centres undefined): the TGI in the experiment with HCC-2998 colon, in the experiment on SF-539 CNS, with SF-295 CNS, with SNB-19 CNS, in the experiment on A498 renal and in the experiment with OVCAR-3 ovarian was > 100 µM throughout. Also, the TGI with 786-0 renal, in the experiment on UO-31 renal and in the experiment on UACC-62 melanoma was > 100 µM each time.

For `C(=C\C(Sc1ccccc1)c1ccccc1)/NNC1=NC(c2ccccc2)C(c2ccccc2)=NN1` (centres undefined), the TGI in the experiment with HCC-2998 colon, in the experiment on SF-539 CNS, in the experiment with SF-295 CNS, in the experiment with SNB-19 CNS, in the experiment with OVCAR-3 ovarian and with 786-0 renal was > 100 µM each time. In addition, the TGI in the experiment on UO-31 renal and in the experiment with UACC-62 melanoma was > 100 µM throughout.

Consider `CCc1cc2c(O)c(c1)Cc1cc(CC)cc(c1O)Cc1cc(CC)cc(c1O)Cc1cc(CC)cc(c1O)Cc1cc(CC)cc(c1O)Cc1cc(CC)cc(c1O)Cc1cc(CC)cc(c1O)C2`, for which the TGI in the experiment with HCC-2998 colon is > 100 µM; with SF-539 CNS, > 100 µM; in the experiment with SF-295 CNS, > 100 µM; in the experiment on SNB-19 CNS, 71.7 µM; with OVCAR-3 ovarian, > 100 µM; in the experiment with 786-0 renal, > 100 µM. Besides, the TGI in the experiment on UO-31 renal and in the experiment on UACC-62 melanoma was > 100 µM in each case.

`COc1cc2c3c(n(CCCNCCCNCCN)c(=O)c2cc1OC)-c1cc2c(cc1C3=O)OCO2`: the GI50 is 37.9 µM in the experiment on SF-539 CNS; > 100 µM in the experiment with SF-295 CNS; 53.9 µM with SNB-19 CNS; > 100 µM in the experiment with A498 renal; 19.5 µM in the experiment on OVCAR-3 ovarian; 26.2 µM in the experiment on 786-0 renal. The values for the GI50 with UO-31 renal and with UACC-62 melanoma were > 100 µM and 37.1 µM, respectively. Also, the TGI with SF-539 CNS is > 100 µM; in the experiment with SF-295 CNS, > 100 µM; in the experiment on SNB-19 CNS it was > 100 µM; with A498 renal, > 100 µM; with OVCAR-3 ovarian, 53.5 µM; with 786-0 renal, 82 µM. Besides, the TGI in the experiment on UO-31 renal and in the experiment with UACC-62 melanoma was > 100 µM in each case.
